What is called IC50 is the midpoint of a concentration-inhibition curve. As a reminder, the AUC is the area under the concentration-time curve, a measure of exposure. A high value points to more exposure. By half-life is commonly meant the time needed for the level to fall by half in the phase considered. Read a low half-life as fast loss.

The values below come from US20260183405A1, “SMALL MOLECULE-DRUG-CONJUGATES CLEAVABLE IN A TUMOR MICROENVIRONMENT” (priority 2022, published 2026).

Like-named read-outs stand apart in the source and are kept apart here.

Data set [1] concerns 786-O. The data set is described as follows: Cytotoxicity in vitro in the presence and absence of elastase (MTT assay). It counts as cell-based. The following applies: 786-O cells, 72 h incubation. On the procedure:
(§1) Cultivation of cells was performed according to standard procedures with the media recommended by the provider. The cells, in a total volume of 100 μL, were seeded in a 96-well plate with a white bottom (#3610). After a 24 h incubation period at 37° C. and 5% CO2, the medium was exchanged by adding 90 μL fresh medium. The treatment started by adding the test compound in 10 μL of culture medium to the cells in triplicates. Concentrations ranging from 10^−5 M to 10^−13 M were chosen. Two identically treated sets of samples were prepared. One set was treated with the test compound alone, whereas to the second set the compound and 10 nM elastase (NE) was added followed by a 72 h incubation period at 37° C. and 5% CO2. The proliferation was detected using the MTT assay (ATCC). At the end of the incubation period the MTT reagent was added to all samples for 4h. Lysis of the cells followed by addition of the detergent was done overnight. The formed dye was detected at 570 nm. The proliferation of untreated but otherwise identically handled cells was defined as the 100% value. The dose response curves allowed the determination of the respective IC50 values. […]
For orientation: Tetrazolium dyes change colour on reduction, which living cells bring about.

The subject of data set [2] is NCI-H292. Described as above. It counts as cell-based. To be noted: NCI-H292 cells, 72 h incubation. Here is the method:
as §1

The subject of data set [3] is SUM149PT. The data set is described as above. It counts as cell-based. The following applies: SUM149PT cells, 72 h incubation. On the procedure: as §1
Data set [4] has as its system HT29. The data set is described as above. It counts as cell-based. The following applies: HT29 cells, 72 h incubation. On the procedure: as §1
Data set [5] can be described thus: Pharmacokinetics in rat after intravenous administration. It counts as in vivo. To be noted: plasma, male rats, intravenous bolus 0.5 mg/kg; for clearance: read-out: CL plasma; for Vd: read-out: VSS. On the procedure:
Male rats (n=3) were given an intravenous 0.5 mg/kg bolus dose of test article dissolved in plasma with 1% DMSO and 2% ethanol. Serial blood samples were collected up to 24 hours post-dose. Plasma was harvested from blood samples and stored frozen until sample analysis. Test article plasma concentrations were analyzed by LC/MS/MS. Pharmacokinetic parameters were calculated using non-compartmental analysis.

Where [6] appears, read: compound alone, read-out: IC50 without neutrophil elastase.
[7] abbreviates: with 10 nM elastase (NE), read-out: IC50 with neutrophil elastase.

On to `CC(C)[C@H](NC(=O)[C@@H]1CCCN1C(=O)[C@H](CC(=O)O)NC(=O)CCOCCOCCOCCNC(=O)NCCCC[C@H](NC(=O)N[C@@H](CCC(=O)O)C(=O)O)C(=O)O)C(=O)N=S(C)(=O)Cc1cc2nc(c1)OCCCOc1cc(F)ccc1-c1cc(ncc1F)N2` (relative stereo) [Compound 9, tetrasodium 1-[(2S,23S,27S)-23,27,29-tricarboxylato-2-(carboxylatomethyl)-4,17,25-trioxo-7,10,13-trioxa-3,16,18,24,26-pentaazanonacosanan-1-oyl]-L-prolyl-N—[(R*)—{[15,19-difluoro-3,4-dihydro-2H,11H-10,6-(azeno)-12,16-(metheno)-1,5,11,13-benzodioxadiazacyclooctadecin-8-yl]methyl}(methyl)oxo-lambda6-sulfanylidene]-L-valinamide], for which the IC50 in data set [1] (setting [6]) was in the range of 100 to 999 nM; in data set [1] (setting [7]), 1 to 9.9 nM; in data set [2] (setting [6]), 100 to 999 nM; in data set [2] (setting [7]), 1 to 9.9 nM; in data set [3] (setting [6]), 100 to 999 nM; in data set [3] (setting [7]), 1 to 9.9 nM. Further, the IC50 in data set [4] (setting [6]) was 100 to 999 nM; in data set [4] (setting [7]) it was 1 to 9.9 nM.
`CCc1c2c(nc3ccccc13)-c1cc3c(c(=O)n1C2)COC(=O)[C@@]3(CC)OC(=O)[C@@H](NC(=O)[C@@H]1CCCN1C(=O)[C@H](CC(=O)O)NC(=O)CCOCCOCCOCCNC(=O)NCCCC[C@H](NC(=O)N[C@@H](CCC(=O)O)C(=O)O)C(=O)O)C(C)C` [Compound 5, tetrasodium (4S)-4,11-diethyl-3,14-dioxo-3,4,12,14-tetrahydro-1H-pyrano[3′,4′:6,7]indolizino[1,2-b]quinolin-4-yl 1-[(2S,23S,27S)-23,27,29-tricarboxylato-2-(carboxylatomethyl)-4,17,25-trioxo-7,10,13-trioxa-3,16,18,24,26-pentaazanonacosanan-1-oyl]-L-prolyl-L-valinate]: in data set [5], the AUC was in the range of 1000 to 10000 ng·h/mL, the half-life lay within 1 to 5 h, the clearance lay in the range of 0.5 to 5 mL/min/kg and the Vd is 0.1 to 0.3 L/kg.
The corresponding values for `CCc1c2c(nc3ccccc13)-c1cc3c(c(=O)n1C2)COC(=O)[C@@]3(CC)OC(=O)[C@@H](NC(=O)[C@@H]1CCCN1C(=O)[C@H](CC(=O)O)NC(=O)CCOCCOCCOCCNC(=O)CCC(=O)Nc1cccc2c(C(=O)NCC(=O)N3CC(F)(F)C[C@H]3C#N)ccnc12)C(C)C` [Compound 6, sodium (4S)-4,11-diethyl-3,14-dioxo-3,4,12,14-tetrahydro-1H-pyrano[3′,4′:6,7]indolizino[1,2-b]quinolin-4-yl 1-[(2S)-2-(carboxylatomethyl)-20-{[4-({2-[(2S)-2-cyano-4,4-difluoropyrrolidin-1-yl]-2-oxoethyl}carbamoyl)quinolin-8-yl]amino}-4,17,20-trioxo-7,10,13-trioxa-3,16-diazaicosanan-1-oyl]-L-prolyl-L-valinate] are under 1000 ng·h/mL, under 0.5 h, over 5 mL/min/kg and 0.3 to 0.9 L/kg.
On to `CCCNC(=O)Nc1cccc(S(=O)(=O)Nc2cccc([C@@H](CC(=O)O)NC(=O)Nc3ccc(NC(=O)NCCOCCOCCOCCC(=O)NCCCC[C@H](NC(=O)CCOCCOCCOCCNC(=O)Nc4ccc(NC(=O)N[C@H](CC(=O)O)c5cccc(NS(=O)(=O)c6cccc(NC(=O)NCCC)c6)c5)cc4)C(=O)NCCOCCOCCOCCC(=O)N[C@@H](CC(N)=O)C(=O)N4CCC[C@H]4C(=O)N[C@H](C(=O)NCCCN(C(=O)CO)[C@@H](c4cc(-c5cc(F)ccc5F)cn4Cc4ccccc4)C(C)(C)C)C(C)C)cc3)c2)c1` [Compound 18], for which, in data set [5], the AUC lay in the range of 100000 to 500000 ng·h/mL, the half-life fell in the range of 10 to 40 h, the clearance lay in the range of 0.02 to 0.5 mL/min/kg and the Vd was in the range of 0.01 to 0.1 L/kg.
As for `CCc1c2c(nc3ccccc13)-c1cc3c(c(=O)n1C2)COC(=O)[C@@]3(CC)OC(=O)[C@@H](NC(=O)[C@@H]1CCCN1C(=O)[C@H](CC(=O)[O-])NC(=O)CCOCCOCCOCCNC(=O)[C@H](CCCCNC(=O)CCOCCOCCOCCNC(=O)CCC(=O)Nc1cccc2c(C(=O)NCC(=O)N3CC(F)(F)C[C@H]3C#N)ccnc12)NC(=O)CCOCCOCCOCCNC(=O)CCC(=O)Nc1cccc2c(C(=O)NCC(=O)N3CC(F)(F)C[C@H]3C#N)ccnc12)C(C)C.[Na+]` [Compound 20, sodium (4S)-4,11-diethyl-3,14-dioxo-3,4,12,14-tetrahydro-1H-pyrano[3′,4′:6,7]indolizino[1,2-b]quinolin-4-yl 1-[(2S)-15-{[N2,N6-bis(17-{[4-({2-[(2S)-2-cyano-4,4-difluoropyrrolidin-1-yl]-2-oxoethyl}carbamoyl)quinolin-8-yl]amino}-14,17-dioxo-4,7,10-trioxa-13-azaheptadecanan-1-oyl}-L-lysyl]amino)-2-(carboxylatomethyl)-4-oxo-7,10,13-trioxa-3-azapentadecanan-1-oyl]-L-prolyl-L-valinate], the AUC in data set [5] was in the range of 1000 to 10000 ng·h/mL. Besides, the half-life in data set [5] is 0.5 to 1 h. Further, the clearance in data set [5] lay within 0.5 to 5 mL/min/kg. Further, the Vd in data set [5] lay in the range of 0.1 to 0.3 L/kg. In addition, the IC50 in data set [1] (setting [6]) was over 1000 nM; in data set [1] (setting [7]), 1 to 9.9 nM; in data set [2] (setting [6]), 100 to 999 nM; in data set [2] (setting [7]), 1 to 9.9 nM; in data set [4] (setting [6]) it was over 1000 nM; in data set [4] (setting [7]), 10 to 99 nM.
Take `CCc1c2c(nc3ccccc13)-c1cc3c(c(=O)n1C2)COC(=O)[C@@]3(CC)OC(=O)[C@@H](NC(=O)[C@@H]1CCCN1C(=O)[C@H](CC(=O)[O-])NC(=O)CCOCCOCCOCCNC(=O)CCCC(=O)NCCCC[C@H](NC(=O)CCOCCOCCOCCNC(=O)CCC(=O)Nc1cccc2c(C(=O)NCC(=O)N3CC(F)(F)C[C@H]3C#N)ccnc12)C(=O)NCCCCCCCC(=O)[O-])C(C)C.[Na+].[Na+]` [Compound 21, disodium (4S)-4,11-diethyl-3,14-dioxo-3,4,12,14-tetrahydro-1H-pyrano[3′,4′:6,7]indolizino[1,2-b]quinolin-4-yl 1-[(2S,27S)-27-[(7-carboxylatoheptyl)carbamoyl]-2-(carboxylatomethyl)-45-{[4-({2-[(2S)-2-cyano-4,4-difluoropyrrolidin-1-yl]-2-oxoethyl}carbamoyl)quinolin-8-yl]amino}-4,17,21,29,42,45-hexaoxo-7,10,13,32,35,38-hexaoxa-3,16,22,28,41-pentaazapentatetracontanan-1-oyl]-L-prolyl-L-valinate]: in data set [5], the AUC fell in the range of 1000 to 10000 ng·h/mL. Further, the half-life in data set [5] is 0.5 to 1 h. Besides, in data set [5], the clearance was in the range of 0.5 to 5 mL/min/kg. Also, the Vd in data set [5] was in the range of 0.1 to 0.3 L/kg. Also, the IC50 in data set [1] (setting [6]) was over 1000 nM; in data set [1] (setting [7]), 1 to 9.9 nM; in data set [2] (setting [6]), 100 to 999 nM; in data set [2] (setting [7]), 1 to 9.9 nM; in data set [4] (setting [6]), over 1000 nM; in data set [4] (setting [7]) it was 10 to 99 nM.
Take `CCCNC(=O)Nc1cccc(S(=O)(=O)Nc2cccc([C@@H](CC(=O)O)NC(=O)Nc3ccc(NC(=O)NCCOCCOCCOCCC(=O)N[C@@H](CC(=O)O)C(=O)N4CCC[C@H]4C(=O)N[C@H](C(=O)NCCCN(C(=O)CO)[C@@H](c4cc(-c5cc(F)ccc5F)cn4Cc4ccccc4)C(C)(C)C)C(C)C)cc3)c2)c1` [Compound 25, disodium 1-[(2S)-2-(carboxylatomethyl)-17-{4-[({(1R)-2-carboxylato-1-[3-({3-[(propylcarbamoyl)amino]benzene-1-sulfonyl}amino)phenyl]ethyl}carbamoyl)amino]anilino}-4,17-dioxo-7,10,13-trioxa-3,16-diazaheptadecanan-1-oyl]-L-prolyl-N-{3-[({1R)-1-[1-benzyl-4-(2,5-difluorophenyl)-1H-pyrrol-2-yl]-2,2-dimethylpropyl}(hydroxyacetyl)amino]propyl}-L-valinamide]: the IC50 in data set [2] (setting [6]) was over 1000 nM; in data set [2] (setting [7]), 10 to 99 nM; in data set [3] (setting [6]), over 1000 nM; in data set [3] (setting [7]), 1 to 9.9 nM; in data set [4] (setting [6]), over 1000 nM; in data set [4] (setting [7]) it was 1 to 9.9 nM.
`CCCNC(=O)Nc1cccc(S(=O)(=O)Nc2cccc([C@@H](CC(=O)O)NC(=O)Nc3ccc(NC(=O)NCCOCCOCCOCCC(=O)NCCCC[C@H](NC(=O)CCOCCOCCOCCNC(=O)Nc4ccc(NC(=O)N[C@H](CC(=O)O)c5cccc(NS(=O)(=O)c6cccc(NC(=O)NCCC)c6)c5)cc4)C(=O)NCCOCCOCCOCCC(=O)N[C@@H](CC(=O)O)C(=O)N4CCC[C@H]4C(=O)N[C@H](C(=O)N[C@@H](CCN(C(=O)CO)[C@@H](c4cc(-c5cc(F)ccc5F)cn4Cc4ccccc4)C(C)(C)C)C(=O)NC)C(C)C)cc3)c2)c1` [Compound 27]: in data set [5], the AUC lay in the range of 100000 to 500000 ng·h/mL, the half-life lay within 10 to 40 h, the clearance lay in the range of 0.02 to 0.5 mL/min/kg and the Vd lay in the range of 0.01 to 0.1 L/kg.
